Experimental data published in patent US20180312493A1, “Antibiotic Compounds, Pharmaceutical Formulations Thereof And Methods And Uses Therefor” (Simon Fraser University, priority 2015, published 2018).
Converted amounts (≈) assume the structure as drawn.

What was measured:
S. aureus (ATCC29213) = assay: In vitro susceptibility, broth microdilution (MIC); format: cell-based; settings: Staphylococcus aureus; S. aureus ATCC29213; 18-24 h, 37 C; read-out: Antimicrobial activity (MIC) S. aureus ATCC29213
Method in brief: (§1)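 CLSI 2-fold serial broth microdilution; K. pneumoniae C238 grown in L-broth, S. aureus ATCC 29213 in Mueller Hinton broth, plates incubated 18–24 h at 37 °C. MIC taken as lowest concentration giving complete growth inhibition by OD600 versus compound-free wells, background-subtracted.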

[1] = tested on: A. baumannii (ATCC 17978); assay: In vitro susceptibility, broth microdilution (MIC); format: cell-based; settings: Acinetobacter baumannii, ATCC17978; A. baumannii ATCC 17978 (values marked *); read-out: Antimicrobial activity (MIC) A. baumannii
Source text: (§2) Epidemic methicillin resistant S. aureus (MRSA) strain sequenced at the Sanger Centre (MRSA252, NRS71) was obtained from NARSA (Network on Antimicrobial Resistance in S. aureus). Methicillin sensitive S. aureus (ATCC 29213 and 25923), methicillin resistant S. aureus (ATCC BAA-1762), and Salmonella typhimurium (ATCC BAA-185) were obtained from ATCC, The Global Bioresource Center. Acinetobacter baumannii (ATCC 19606 and ATCC 17978), Klebsiella pneumonia (C238), vancomycin resistant Enterococci #2 (2010A) (VRE#2), MRSA (USA400, MW2) and Pseudomonas aeruginosa (PA0-1) were obtained from the laboratory of Dr B. B. Finlay at the University of British Columbia (Vancouver, Canada).
(§3) The antimicrobial activities of PK inhibitor candidates were determined using the 96-well microtiter standard 2-fold serial broth microdilution method as described by CLSI (formerly NCCLS) with the various gram-positive and gram-negative bacteria species mentioned above. Bacteria from a single colony were grown, overnight in either BHI Broth (VRE), mueller hinton broth (S. aureus 29213; MRSA USA400, A. baumannii 19606, MRSA BAA-1762) or L-broth (P. aeruginosa, S. typhimurium, K. pneumonia and A. baumannii 17978). Each compound was prepared in DMSO with 2-fold serial dilutions to give a final concentration of, 0.031 to 64 μg/ml. 10 μl of the compound solution was then added, in duplicate, to either, 190 μl of cation adjusted mueller hinton broth (CAMHB) or 190 μl CAMHB containing ˜2.5×10^5 CFU/ml of bacteria (final compound concentration 0.031 to 64 μg/ml). Culture plates were incubated for 18-24 h at 37° C., and optical density at 600 nm (OD600) was measured using a Benchmark Plus™ microplate spectrophotometer (Bio-Rad™). The absorbance control values for the series containing CAMHB and inhibitor were subtracted as background from the corresponding infected wells. Minimal inhibitory concentration (MIC) was defined as the lowest concentration of test compound leading to complete inhibition of cell growth in relation to compound-free control wells as determined by optical density. Vancomycin, methicillin and ciprofloxicin were used as reference compounds. All assays were run in triplicate or duplicate. Experiments were replicated at least twice to verify reproducibility using the above conditions.

VRE#2 (2010A) = assay: In vitro susceptibility, broth microdilution (MIC); format: cell-based, vancomycin resistant Enterococci; settings: VRE#2 (2010A); read-out: Antimicrobial activity (MIC) VRE#2
Method in brief: (§4)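 MIC determined by CLSI 2-fold broth microdilution in cation-adjusted Mueller–Hinton broth at ~2.5×10^5 CFU/ml, final compound 0.031–64 μg/ml, 18–24 h at 37 °C. MIC is the lowest concentration giving complete growth inhibition by background-corrected OD600 versus compound-free wells; duplicate or triplicate wells, replicated at least twice.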

K. pneumoniae (C238) = assay: In vitro susceptibility, broth microdilution (MIC); format: cell-based; settings: Klebsiella pneumoniae; K. pneumoniae (C238); read-out: Antimicrobial activity (MIC) K. pneumoniae
Method in brief: as §1

[2] = tested on: A. baumannii (ATCC 19606); assay: In vitro susceptibility, broth microdilution (MIC); format: cell-based; settings: Acinetobacter baumannii, ATCC19606; A. baumannii ATCC 19606 (values without asterisk); read-out: Antimicrobial activity (MIC) A. baumannii
Source text: as §2, §3

MRSA Pyk = biological target: T1, MRSA Pyk (Staphylococcus aureus, UniProt Q6GG09); assay: MRSA pyruvate kinase (PK) activity, continuous LDH-coupled assay; format: biochemical, methicillin resistant S. aureus (MRSA252)
T1 construct: made in house; host or cells: E. coli BL-21 (DE3)
Method in brief: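 His-tagged MRSA PK (strain Sanger 252) and human PK isoforms expressed in E. coli BL-21 (DE3) and Ni-NTA purified, used at 15 nM in an LDH-coupled assay following NADH oxidation at 340 nm, 30° C, up to 5 min, ≤1% DMSO. IC50 from four-parameter variable-slope fit; Ki with PEP 2-20 mM, ADP fixed 2 mM, inhibitor 0-400 nM.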

MRSA (ATCC BAA-1762) = assay: In vitro susceptibility, broth microdilution (MIC); format: cell-based, methicillin resistant S. aureus; settings: Staphylococcus aureus; MRSA ATCC BAA-1762; read-out: Antimicrobial activity (MIC) MRSA ATCC BAA1762
Method in brief: as §4

T1 sequence (Q6GG09 whole entry): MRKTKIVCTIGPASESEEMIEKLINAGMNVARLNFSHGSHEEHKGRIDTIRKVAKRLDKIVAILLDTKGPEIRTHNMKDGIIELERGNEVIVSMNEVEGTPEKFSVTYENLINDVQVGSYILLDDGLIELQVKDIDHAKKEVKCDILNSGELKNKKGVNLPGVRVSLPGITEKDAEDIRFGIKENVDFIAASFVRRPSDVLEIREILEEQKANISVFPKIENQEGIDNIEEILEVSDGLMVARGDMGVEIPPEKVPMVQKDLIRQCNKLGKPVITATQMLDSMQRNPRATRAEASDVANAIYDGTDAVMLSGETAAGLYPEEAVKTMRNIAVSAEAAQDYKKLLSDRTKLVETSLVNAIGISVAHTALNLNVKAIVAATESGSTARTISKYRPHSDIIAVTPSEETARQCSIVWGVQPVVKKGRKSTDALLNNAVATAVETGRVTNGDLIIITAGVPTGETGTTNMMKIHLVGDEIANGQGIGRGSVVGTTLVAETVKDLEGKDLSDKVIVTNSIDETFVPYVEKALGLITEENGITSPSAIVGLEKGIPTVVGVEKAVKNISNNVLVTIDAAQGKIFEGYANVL

SMILES | MIC (S. aureus (ATCC29213)) [µg/mL] | MIC [1] [µg/mL] | MIC (VRE#2 (2010A)) [µg/mL] | MIC (K. pneumoniae (C238)) [µg/mL] | MIC [2] [µg/mL] | IC50 (MRSA Pyk) [nM] | MIC (MRSA (ATCC BAA-1762)) [µg/mL]
O=C(Nc1ccc([N+](=O)[O-])cc1)Nc1nc2cc(Br)ccc2s1 [Compound 154, 1-(5-bromobenzo[d]thiazol-2-yl)-3-(4-nitrophenyl)urea] | > 64 | > 64 | – | – | – | – | –
Brc1ccc2cc(-c3nc4ncc(Br)cc4[nH]3)[nH]c2c1 [Compound 210, 6-Bromo-2-(6-bromo-1H-indol-2-yl)-1H-imidazo[4,5-b]pyridine] | > 64 | > 64 | – | – | – | – | –
O=C(Nc1nc2cc(Br)ccc2s1)Nc1ccc(Cl)cc1C(F)(F)F [Compound 157, 1-(5-bromobenzo[d]thiazol-2-yl)-3-(4-chloro-2-(trifluoromethyl)phenyl)urea] | – | > 64 | – | – | – | – | –
O=C(NCCN1CCNCC1=O)c1c(-c2cc3cc(Cl)ccc3[nH]2)[nH]c2cc(Br)ccc12 [Compound 143, 6-bromo-5′-chloro-N-(2-(2-oxopiperazin-1-yl)ethyl)-1H,1′H-[2,2′-biindole]-3-carboxamide] | > 64 | > 64 | – | – | – | – | –
OCCn1c(-c2cc3ccc(Br)cc3[nH]2)nc2cc(Cl)c(Cl)cc21 [Compound 211, 2-(2-(6-Bromo-1H-indol-2-yl)-5,6-dichloro-1H-benzo[d]imidazol-1-yl)ethan-1-ol] | > 64 | > 64 | – | – | – | – | –
O=C(O)Cn1c(-c2cc3ccc(Br)cc3[nH]2)nc2cc(Cl)c(Cl)cc21 [Compound 213, 2-(2-(6-Bromo-1H-indol-2-yl)-5,6-dichloro-1H-benzo[d]imidazol-1-yl)acetic Acid] | > 64 | > 64 | – | – | – | – | –
CN1CCC(CCNC(=O)c2c(/C=C/c3ccc(Cl)cc3)[nH]c3cc(Br)ccc23)CC1 [Compound 40, (E)-6-Bromo-2-(4-chlorostyryl)-N-(2-(1-methylpiperidin-4-yl)ethyl)-1 H-indole-3-carboxamide] | 8 (≈ 16 µM) | – | 8 (≈ 16 µM) | 16 (≈ 31.9 µM) | > 64 | 100 to 1000 | –
CN1CCN(CCNC(=O)COc2cc3[nH]c(-c4cc5ccc(Br)cc5[nH]4)cc3cc2Cl)C(c2ccccc2)C1 (stereo not drawn) [Compound 194, 2-((6′-Bromo-5-chloro-1H,1′H-[2,2′-biindol]-6-yl)oxy)-N-(2-(4-methyl-2-phenylpiperazin-1-yl)ethyl)acetamide] | > 64 | > 64 | – | – | – | – | –
COCCN1CCCN(CCNC(=O)c2c(-c3cc4cc(Cl)ccc4[nH]3)[nH]c3cc(Br)ccc23)CC1 [Compound 130, 6-bromo-5′-chloro-N-(2-(4-(2-methoxyethyl)-1,4-diazepan-1-yl)ethyl)-1H,1′H-2,2′-biindole-3-carboxamide] | 16 (≈ 27.9 µM) | – | 16 (≈ 27.9 µM) | – | > 64 | < 100 | 16 (≈ 27.9 µM)
C[n+]1ccc(CCNC(=O)c2c(-c3cc4cc(Cl)ccc4[nH]3)[nH]c3cc(Br)ccc23)cc1 [Compound 149, 4-(2-(6-bromo-5′-chloro-1H,1′H-[2,2′-biindole]-3-carboxamido)ethyl)-1-methylpyridin-1-ium] | 16 | – | 16 | – | > 64 | < 100 | 16
CN1CCCN(CCCCNC(=O)c2c(-c3cc4cc(Cl)ccc4[nH]3)[nH]c3cc(Br)ccc23)CC1 [Compound 117, 6-Bromo-5′-chloro-N-(4-(4-methyl-1,4-diazepan-1-yl)butyl)-1H,1′H-[2,2′-biindole]-3-carboxamide] | 8 (≈ 14.4 µM) | – | 8 (≈ 14.4 µM) | – | 32 (≈ 57.5 µM) | < 100 | 8 (≈ 14.4 µM)
COC(=O)C[N+](C)(C)CCON=C(c1c(-c2cc3cc(Cl)ccc3[nH]2)[nH]c2cc(Br)ccc12)C(F)(F)F (racemic) [Compound 222, N-(2-(((1-(6-Bromo-5′-chloro-1H,1′H-[2,2′-biindol]-3-yl)-2,2,2-trifluoroethylidene)amino)oxy)ethyl)-2-methoxy-N,N-dimethyl-2-oxoethan-1-aminium Bromide] | 2 | – | 4 | – | 32 | < 100 | 2
CCNCCNC(=O)c1c(-c2cc3cc(Cl)ccc3[nH]2)[nH]c2cc(Br)ccc12 [Compound 137, 6-Bromo-5′-chloro-N-(2-(ethylamino)ethyl)-1H,1′H-[2,2′-biindole]-3-carboxamide] | 8 (≈ 17.4 µM) | – | 8 (≈ 17.4 µM) | – | 32 (≈ 69.6 µM) | < 100 | 8 (≈ 17.4 µM)
CN1CCCN(CCNC(=O)c2c(-c3cc4cc(Cl)ccc4[nH]3)[nH]c3cc(Br)ccc23)CC1 [Compound 119, 6-Bromo-5′-chloro-N-(2-(4-methyl-1,4-diazepan-1-yl)ethyl)-1H,1′H-[2,2′-biindole]-3-carboxamide] | 16 (≈ 30.3 µM) | – | 8 (≈ 15.1 µM) | – | 64 (≈ 121 µM) | < 100 | 16 (≈ 30.3 µM)
CN(C)CCNCCNC(=O)c1c(-c2cc3cc(Cl)ccc3[nH]2)[nH]c2cc(Br)ccc12 [Compound 126, 6-Bromo-5′-chloro-N-(2-((2-(dimethylamino)ethyl)amino)ethyl)-1H,1′H-[2,2′-biindole]-3-carboxamide] | 16 (≈ 31.8 µM) | – | 8 (≈ 15.9 µM) | – | 32 (≈ 63.6 µM) | < 100 | 16 (≈ 31.8 µM)
CN(C)CCON=C(c1c(-c2cc3cc(Cl)ccc3[nH]2)[nH]c2cc(Br)ccc12)C(F)(F)F (racemic) [Compound 220, 1-(6-Bromo-5′-chloro-1H,1′H-[2,2′-biindol]-3-yl)-2,2,2-trifluoroethan-1-one O-(2-(dimethylamino)ethyl)oxime] | 2 (≈ 3.79 µM) | – | 2 (≈ 3.79 µM) | – | > 64 | < 100 | 2 (≈ 3.79 µM)
OCCOc1cc2[nH]c(-c3cc4ccc(Br)cc4[nH]3)cc2cc1Cl [Compound 196, 2-((6′-Bromo-5-chloro-1H,1′H-[2,2′-biindol]-6-yl)oxy)ethan-1-ol] | 16 (≈ 39.4 µM) | – | > 64 | – | > 64 | < 100 | 8 (≈ 19.7 µM)
CN(C)CCNC(=O)c1c(-c2cc3cc(Cl)ccc3[nH]2)[nH]c2cc(Br)ccc12 [Compound 73, 6-Bromo-5′-chloro-N-(2-(dimethylamino)ethyl)-1H,1′H-[2,2′-biindole]-3-carboxamide] | 8 (≈ 17.4 µM) | – | 8 (≈ 17.4 µM) | 8 (≈ 17.4 µM) | 64 (≈ 139 µM) | < 100 | –
N.O=C(O)CON=C(c1c(-c2cc3cc(Cl)ccc3[nH]2)[nH]c2cc(Br)ccc12)C(F)(F)F (racemic) [Compound 219, Ammonium 2-(((1-(6-bromo-5′-chloro-1H,1′H-[2,2′-biindol]-3-yl)-2,2,2-trifluoroethylidene)amino)oxy)acetate] | 8 | – | 4 | – | > 64 | < 100 | 8
CN1CCCN(CCCNC(=O)c2c(-c3cc4cc(Cl)ccc4[nH]3)[nH]c3cc(Br)ccc23)CC1 [Compound 118, 6-Bromo-5′-chloro-N-(3-(4-methyl-1,4-diazepan-1-yl)propyl)-1H,1′H-[2,2′-biindole]-3-carboxamide] | 16 (≈ 29.5 µM) | – | 8 (≈ 14.7 µM) | – | 32 (≈ 58.9 µM) | < 100 | 16 (≈ 29.5 µM)
